Reference: patent US20050159365A1, “Hepatits c virus inhibitor comprising alpha-glycosylceramide as the active ingredient” (Kirin Beer Kabushiki Kaisha, priority 2002, published 2005)
Like-named read-outs stand apart in the source and are kept apart here.

Key:
Type in all cases: in vivo
[1] = Serum KRN7000 levels by LC-MS/MS after intravenous administration to HCV-infected chimpanzees; details: for Concentration in blood (serum KRN7000 level): before administration; for concentration at 15 min / concentration at 6 h: chimpanzee, serum, iv, 10 μg/kg, read-out: Concentration in blood (serum KRN7000 level); for concentration at 15 min: 15 minutes later; for concentration at 6 h: 6 hours later
Excerpt: (§1) Chimpanzees are the only test animals that can be persistently infected with hepatitis C viruses. Thus, 2 chimpanzees were selected as test animals for this experiment from the chimpanzee-dedicated facility (Kumamoto Primates Park, Sanwa Kagaku Kenkyusho Colo., Ltd.) where chimpanzees including hepatitis C virus carriers have been artificially bred and propagated over a long period of time. This experiment was examined and approved by the Experiment Review Board in advance in terms of ethics and test contents, and pain inflicted on chimpanzees was eliminated as much as possible during the experiment. Two chimpanzees employed in the experiment are hereafter referred to as Animal No. C33 (the duration of persistent infection with HCV (1a): 22 years) and Animal No. C54 (the duration of persistent infection with HCV (1b): 20 years), respectively.
After an acclimation period of approximately 1 month, KRN7000 was intravenously administered two times to animals at the rate of 10 μg/kg at the interval of 28 days (day 0 and day 28). In order to obtain samples for verifying the responses of chimpanzees to KRN7000 and efficacy of KRN7000 on chronic HCV infections, blood drawing was carried out before and after each administration. The total leukocyte count was measured using an automated blood cell counter Sysmex K4500 (Sysmex Corporation). The leukocyte percentage was determined by coating whole blood onto a fat-free slide glass, immobilizing it thereon, staining with Diff-Quick (International Reagents Corp.), and microscopically examining 200 leukocytes. Neutrophil and lymphocyte counts were calculated by multiplying the obtained values with the total leukocyte count. The NKT cell percentage in the T cells was determined by: staining the whole blood with an anti-human TCR Vα24 antibody (Beckman Coulter), KRN7000 (α-GalCer)-bound human CD1d tetramer, and an anti-human CD3 antibody (Becton Dickinson Japan) that are labeled with different fluorescent dyes; lysing the stained whole blood with the FACS Lysing Solution (Becton Dickinson Japan); immobilizing thereof; and then determining the NKT cell ratio using the FACSCalibur (Becton Dickinson Japan). Cells that had responded to all of the anti-human TCR Vα24 antibody, the tetramer, and the anti-human CD3 antibody were determined to be the NKT cells of the chimpanzees. The activities of alanine aminotransferase (ALT), aspartate aminotransferase (AST), and lactate dehydrogenase (LDH) in serums were assayed using an automatic analyzer. The serum HCV-RNA levels were assayed by RT-PCR using the AMPLICOR® GT HCV monitor (Roche Diagnostics) and branched DNA (bDNA) probe assay using the Quantiplex HCV-RNA 2 (Bayer Corporation). The serum KRN7000 levels were assayed by liquid chromatography and tandem mass spectrometry (LC-MS/MS).

NKT cells = test: NKT cell percentage in the T cells by FACS in HCV-infected chimpanzees
Excerpt: as §1, with “Two chimpanzees employed in the experiment are hereafter referred to as Animal No. C33 (the duration of persistent infection with HCV (1a): 22 years) and Animal No. C54 (the duration of persistent infection with HCV (1b): 20 years), respectively.” left out
(§2) After an acclimation period of approximately 1 month, KRN7000 was intravenously administered two times to animals at the rate of 10 μg/kg at the interval of 28 days (day 0 and day 28). […] The total leukocyte count was measured using an automated blood cell counter Sysmex K4500 (Sysmex Corporation). The leukocyte percentage was determined by coating whole blood onto a fat-free slide glass, immobilizing it thereon, staining with Diff-Quick (International Reagents Corp.), and microscopically examining 200 leukocytes. Neutrophil and lymphocyte counts were calculated by multiplying the obtained values with the total leukocyte count. […]

[2] = Serum ALT, AST and LDH activities in HCV-infected chimpanzees; details: both chimpanzees, both stages; peaks 1 day or 3 days after administration, then returned to levels before administration
Excerpt: as §1
as §2, with “count. The NKT cell percentage in the T cells was determined by: staining the whole blood with an anti-human TCR Vα24 antibody (Beckman Coulter), KRN7000 (α-GalCer)-bound human CD1d tetramer, and an anti-human CD3 antibody (Becton Dickinson Japan) that are labeled with different fluorescent dyes; lysing the stained whole blood with the FACS Lysing Solution (Becton Dickinson Japan); immobilizing thereof; and then determining the NKT cell ratio using the FACSCalibur (Becton Dickinson Japan).” for “count.”

leukocytes = test: Total leukocyte, neutrophil and lymphocyte counts in blood of HCV-infected chimpanzees; details: 10 μg/kg i.v.
Excerpt: as §1
as §2, with “count. The NKT cell percentage in the T cells was determined by: staining the whole blood with an anti-human TCR Vα24 antibody (Beckman Coulter), KRN7000 (α-GalCer)-bound human CD1d tetramer, and an anti-human CD3 antibody (Becton Dickinson Japan) that are labeled with different fluorescent dyes; lysing the stained whole blood with the FACS Lysing Solution (Becton Dickinson Japan); immobilizing thereof; and then determining the NKT cell ratio using the FACSCalibur (Becton Dickinson Japan).” for “count.”

hepatitis C virus = test: Serum HCV-RNA levels (RT-PCR, bDNA probe assay) in chimpanzees persistently infected with hepatitis C virus
Excerpt: as §1
as §2, with “count. The NKT cell percentage in the T cells was determined by: staining the whole blood with an anti-human TCR Vα24 antibody (Beckman Coulter), KRN7000 (α-GalCer)-bound human CD1d tetramer, and an anti-human CD3 antibody (Becton Dickinson Japan) that are labeled with different fluorescent dyes; lysing the stained whole blood with the FACS Lysing Solution (Becton Dickinson Japan); immobilizing thereof; and then determining the NKT cell ratio using the FACSCalibur (Becton Dickinson Japan).” for “count.”

[3] = Animal C33, first administration (10 μg/kg i.v., day 0)
[4] = Animal C33, second administration (10 μg/kg i.v., day 28)
[5] = Animal C54, first administration (10 μg/kg i.v., day 0)
[6] = Animal C54, second administration (10 μg/kg i.v., day 28)

Concentration in blood (serum KRN7000 level) [1, 3]: <10 ng/mL | Concentration in blood (serum KRN7000 level) [1, 4]: <10 ng/mL | Concentration in blood (serum KRN7000 level) [1, 5]: <10 ng/mL | Concentration in blood (serum KRN7000 level) [1, 6]: <10 ng/mL | Time after administration at which maximum serum levels of KRN7000 were detected ([1]; both chimpanzees, both stages, 10 μg/kg i.v.): 15 min | concentration at 15 min [1, 3]: 89 ng/mL | concentration at 6 h [1, 3]: 38 ng/mL | concentration at 15 min [1, 4]: 97 ng/mL | concentration at 6 h [1, 4]: 58 ng/mL | concentration at 15 min [1, 5]: 129 ng/mL | concentration at 6 h [1, 5]: 42 ng/mL | concentration at 15 min [1, 6]: 141 ng/mL | concentration at 6 h [1, 6]: 77 ng/mL
Structure (SMILES): CCCCCCCCCCCCCCCCCCCCCCCCCC(=O)N[C@@H](CO[C@H]1O[C@H](CO)[C@H](O)[C@H](O)[C@H]1O)[C@H](O)[C@H](O)CCCCCCCCCCCCCC [KRN7000, (2S,3S,4R)-1-(α-D-galactopyranosyloxy)-2-hexacosanoylamino-3,4-octadecanediol]
NKT cells, course after disappearance (NKT cells; Test Animal No. C54, after the administration): gradually showed a tendency to recover | NKT cells (ratio of NKT cell count to T cell count) (NKT cells; day following both administrations, both chimpanzees, 10 μg/kg i.v.): not detected | Serum ALT activity [2]: transiently and mildly elevated | Serum AST activity [2]: transiently and mildly elevated | Serum LDH activity [2]: transiently and mildly elevated | Lymphocyte count (leukocytes; 6 hours after the administration, some exceptions): decreased | Neutrophil count (leukocytes; both chimpanzees, both stages of administration, 6 hours later): increased | Total leukocyte count (leukocytes; in many cases, after administration): transiently increased | Effect on chimpanzees infected with chronic HCV (overall conclusion) (hepatitis C virus; 10 μg/kg i.v. two times at interval of 28 days): anti-HCV effects | HCV-RNA levels, second administration (day 28) compared with initial administration (day 0) (hepatitis C virus; 10 μg/kg i.v., day 0 and day 28): continuously decreased | Serum HCV-RNA levels (hepatitis C virus; both chimpanzees (HCV 1a, 1b), 1 day or 3 days after administration, both stages, 10 μg/kg i.v., RT-PCR or bDNA): apparent decreases
